Results on one substance are retold here after patent publication US7311919B2, “Agents for treating osteoporosis and inhibiting osteoclast formation” (Simpson Biotech Co., Ltd., priority 2003, dated 2007).

The test system of the experiment is osteoclasts. Put plainly: Osteoclast formation in co-culture of myelocytes and osteoblasts (TRAP staining). In kind it is cell-based. As to conditions: 2 U/ml. As to the method:
Myelocytes and osteoblasts were co-cultured in vitro and the numbers of osteoclasts formed were measured. Myelocytes will differentiate into osteoclasts expressing tartrate-resisted acidic phosphatase (TRAP) when vitamin D is present in the coculture. These osteoclasts could be identified by staining for TRAP. Therefore the development of osteoclasts could be assayed by co-culturing myelocytes with osteoblasts.
Osteoblasts and, myelocytes were co-cultured in 24-well plate. PTH (100 ng/ml), 1α, 25 (OH)2VD3 (10^−8 M), water extraction of the mycelium of C. Sinensis 3 mg/ml, 300 μg/ml, 30 μg/ml, 3 μg/ml or Elcatonin 2 U/ml were added. Samples were numbered No. 1˜No. 6. Each sample was cultured in 4 wells. Culture was maintained for 6 days with medium changed every two days.
After coculturing, TRAP-positive cells were stained to dark red color. The numbers of TRAP-positive osteoclasts that have more than 3 nucleuses were counted. The average numbers of osteoclasts from 4 samples were the number of osteoclasts.
The numbers of osteoclasts in the 1α, 25 (OH)2D3 sample was considered 100%. The percentage of osteoclasts formed of experimental group was calculated using formula 1. Student's t-test was used to examine the significance.
The formation of osteoclasts (%) osteoclast cell numbers/osteoclast cell numbers in medium with 1α,25(OH)2D3×100 (formula 1)

On to Elcatonin, for which the “Formation of osteoclasts (%)” value (1α,25(OH)2D3 sample = 100%) was found to be 13.8%. Besides, the “Average Osteoclast cell numbers (n = 4)” value (6 days co-culture) is reported as 113.0.
